Here are results for one compound from patent US9216182B2, “Carbamate/urea derivatives containing piperidin and piperazin rings as H3 receptor inhibitors” (Novartis AG, priority 2011, dated 2015).

Usually melting point stands for the temperature, or range, at which the solid turns liquid. `CC(C)N1CCN(C(=O)OC2CCN(c3ccc(C(N)=O)cn3)CC2)CC1` [Example 1.1, 1-(5-carbamoylpyridin-2-yl)piperidin-4-yl 4-isopropylpiperazine-1-carboxylate] returned a melting point of 200.1 to 203.6 °C.
